Laboratory results published in patent publication US20200181117A1, “SUBSTITUTED 3-HETEROARYLOXY-1H-PYRAZOLES AND SALTS THEREOF AND THEIR USE AS HERBICIDAL ACTIVE SUBSTANCES” (BAYER CROPSCIENCE AKTIENGESELLSCHAFT, priority 2017, published 2020).

Tests used:
Assay type in all cases: in vivo
[1] = test system: Abutilon theophrasti; test: Post-emergence herbicidal action; conditions: 1280 g/ha, rated visually after about 3 weeks vs untreated controls
Method: (§1) A. Post-Emergence Herbicidal Action and Crop Plant Compatibility Seeds of monocotyledonous and dicotyledonous weeds and crop plants were placed in sandy loam in plastic or wood-fiber pots, covered with soil and cultivated in a greenhouse under controlled growth conditions. 2 to 3 weeks after sowing, the test plants were treated at the one-leaf stage. The compounds of the invention, formulated in the form of wettable powders (WP) or as emulsion concentrates (EC), were then sprayed onto the green parts of the plants as aqueous suspension or emulsion with addition of 0.5% additive at a water application rate of 600 l/ha (converted). After the test plants had been kept in the greenhouse under optimum growth conditions for about 3 weeks, the activity of the preparations was rated visually in comparison to untreated controls. For example, 100% activity=the plants have died, 0% activity=like control plants. Tables B1 to B15 below show the effects of selected compounds of the general formula (I) according to Table I on various harmful plants and an application rate corresponding to 1280 g/ha, which were obtained by the experimental procedure mentioned above.

[2] = test system: Alopecurus myosuroides; test: Post-emergence herbicidal action; conditions: 1280 g/ha, rated visually after about 3 weeks vs untreated controls
Method: as §1

[3] = test system: Amaranthus retroflexus; test: Post-emergence herbicidal action; conditions: 1280 g/ha, rated visually after about 3 weeks vs untreated controls
Method: as §1

[4] = test system: Echinochloa crus-galli; test: Post-emergence herbicidal action; conditions: 1280 g/ha, rated visually after about 3 weeks vs untreated controls
Method: as §1

[5] = test system: Pharbitis purpurea; test: Post-emergence herbicidal action; conditions: 1280 g/ha, rated visually after about 3 weeks vs untreated controls
Method: as §1

[6] = test system: Polygonum convolvulus; test: Post-emergence herbicidal action; conditions: 1280 g/ha, rated visually after about 3 weeks vs untreated controls
Method: as §1

[7] = test system: Setaria viridis; test: Post-emergence herbicidal action; conditions: 1280 g/ha, rated visually after about 3 weeks vs untreated controls
Method: as §1

[8] = test system: Stellaria media; test: Post-emergence herbicidal action; conditions: 1280 g/ha, rated visually after about 3 weeks vs untreated controls
Method: as §1

[9] = test system: Viola tricolor; test: Post-emergence herbicidal action; conditions: 1280 g/ha, rated visually after about 3 weeks vs untreated controls
Method: as §1

[10] = test system: Abutilon theophrasti; test: Pre-emergence herbicidal action; conditions: 1280 g/ha, scored visually after about 3 weeks vs untreated controls
Text: (§2) Pre-Emergence Herbicidal Action and Crop Plant Compatibility Seeds of monocotyledonous and dicotyledonous weed plants and crop plants were placed in plastic or wood fiber pots and covered with soil. The compounds of the invention, formulated in the form of wettable powders (WP) or as emulsion concentrates (EC), were then applied onto the surface of the covering soil as aqueous suspension or emulsion with addition of 0.5% additive at a water application rate of 600 l/ha (converted). After the treatment, the pots were placed in a greenhouse and kept under good growth conditions for the test plants. After about 3 weeks, the effect of the preparations was scored visually in comparison with untreated controls as percentages. For example, 100% activity=the plants have died, 0% activity=like control plants. Tables C1 to C14 below show the effects of selected compounds of the general formula (I) according to Table I on various harmful plants and an application rate corresponding to 1280 g/ha, which were obtained by the experimental procedure mentioned above.

[11] = test system: Alopecurus myosuroides; test: Pre-emergence herbicidal action; conditions: 1280 g/ha, scored visually after about 3 weeks vs untreated controls
Text: as §2

[12] = test system: Amaranthus retroflexus; test: Pre-emergence herbicidal action; conditions: 1280 g/ha, scored visually after about 3 weeks vs untreated controls
Text: as §2

[13] = test system: Avena fatua; test: Pre-emergence herbicidal action; conditions: 1280 g/ha, scored visually after about 3 weeks vs untreated controls
Text: as §2

[14] = test system: Echinochloa crus-galli; test: Pre-emergence herbicidal action; conditions: 1280 g/ha, scored visually after about 3 weeks vs untreated controls
Text: as §2

[15] = test system: Hordeum murinum; test: Pre-emergence herbicidal action; conditions: 1280 g/ha, scored visually after about 3 weeks vs untreated controls
Text: as §2

[16] = test system: Lolium rigidum; test: Pre-emergence herbicidal action; conditions: 1280 g/ha, scored visually after about 3 weeks vs untreated controls
Text: as §2

[17] = test system: Matricaria inodora; test: Pre-emergence herbicidal action; conditions: 1280 g/ha, scored visually after about 3 weeks vs untreated controls
Text: as §2

[18] = test system: Polygonum convolvulus; test: Pre-emergence herbicidal action; conditions: 1280 g/ha, scored visually after about 3 weeks vs untreated controls
Text: as §2

[19] = test system: Setaria viridis; test: Pre-emergence herbicidal action; conditions: 1280 g/ha, scored visually after about 3 weeks vs untreated controls
Text: as §2

[20] = test system: Stellaria media; test: Pre-emergence herbicidal action; conditions: 1280 g/ha, scored visually after about 3 weeks vs untreated controls
Text: as §2

[21] = test system: Veronica persica; test: Pre-emergence herbicidal action; conditions: 1280 g/ha, scored visually after about 3 weeks vs untreated controls
Text: as §2

[22] = test system: Viola tricolor; test: Pre-emergence herbicidal action; conditions: 1280 g/ha, scored visually after about 3 weeks vs untreated controls
Text: as §2

[23] = test system: Veronica persica; test: Post-emergence herbicidal action; conditions: 1280 g/ha, rated visually after about 3 weeks vs untreated controls
Method: as §1

Compound	herbicidal activity on Abutilon theophrasti [1]	herbicidal activity on Alopecurus myosuroides [2]	herbicidal activity on Amaranthus retroflexus [3]	herbicidal activity on Echinochloa crus-galli [4]	herbicidal activity on Pharbitis purpurea [5]	herbicidal activity on Polygonum convolvulus [6]	herbicidal activity on Setaria viridis [7]	herbicidal activity on Stellaria media [8]	herbicidal activity on Viola tricolor [9]	herbicidal activity on Abutilon theophrasti [10]	herbicidal activity on Alopecurus myosuroides [11]	herbicidal activity on Amaranthus retroflexus [12]	herbicidal activity on Echinochloa crus-galli [14]	herbicidal activity on Matricaria inodora [17]	herbicidal activity on Polygonum convolvulus [18]	herbicidal activity on Setaria viridis [19]	herbicidal activity on Stellaria media [20]	herbicidal activity on Veronica persica [21]	herbicidal activity on Viola tricolor [22]	herbicidal activity on Veronica persica [23]	other results
Cc1c(Sc2ccc(F)cc2F)c(Oc2ncccn2)nn1C [Example I-044, 2-[4-(2,4-Difluorophenyl)sulfanyl-1,5-dimethylpyrazol-3-yl]oxypyrimidine]	100%	90%	100%	100%	100%	100%	100%	100%	100%	100%	100%	100%	100%	100%	90%	100%	100%	100%	100%		herbicidal activity on Avena fatua [13]: 100%; herbicidal activity on Hordeum murinum [15]: 90%; herbicidal activity on Lolium rigidum [16]: 90%
Cn1cc(Sc2ccc(Cl)cc2)c(Oc2ncc(Cl)cn2)n1 [Example I-188]			100%									100%	80%			100%	90%		100%	100%	
CC(C)n1cc(Sc2ccc(F)cc2)c(Oc2ncc(Cl)cn2)n1 [Example I-137]			80%						100%			100%			100%	100%	100%		100%	90%	
Cn1cc(Sc2ccccc2)c(Oc2ncccn2)n1 [Example I-067]						90%		90%	80%	90%	90%	100%	90%	100%	90%	100%	90%	100%	100%	100%	
Cc1c(Sc2cccc(Cl)c2)c(Oc2ncc(F)cn2)nn1C [Example I-091]	80%	80%	80%	80%	80%		100%		100%	100%	100%	100%	100%	100%	100%	100%	100%	100%	100%		herbicidal activity on Avena fatua [13]: 90%; herbicidal activity on Hordeum murinum [15]: 100%; herbicidal activity on Lolium rigidum [16]: 90%
Cn1cc(Sc2ccc(F)cc2)c(Oc2ncccn2)n1 [Example I-032]			90%			90%		100%				80%		90%				90%		90%	
Cc1c(Sc2cccc(C(F)(F)F)c2)c(Oc2ncccn2)nn1C [Example I-142]	80%		90%								80%	90%			100%	100%	90%	90%	100%	80%	
Cc1c(Sc2cccc(F)c2)c(Oc2ncccn2)nn1C [Example I-092]	100%	90%	100%	100%	80%	100%	100%	100%	100%	100%	100%	100%	100%	100%	90%	100%	90%	100%	90%		herbicidal activity on Avena fatua [13]: 90%; herbicidal activity on Hordeum murinum [15]: 100%; herbicidal activity on Lolium rigidum [16]: 100%
CCc1c(Sc2ccc(Cl)cc2)c(Oc2ncccn2)nn1C [Example I-058]			80%					100%				100%					90%		80%	90%	
